In experiment [1] the target is T1, Acetylcholinesterase (Rattus norvegicus, UniProt P37136).
T1 sequence (P37136 whole entry): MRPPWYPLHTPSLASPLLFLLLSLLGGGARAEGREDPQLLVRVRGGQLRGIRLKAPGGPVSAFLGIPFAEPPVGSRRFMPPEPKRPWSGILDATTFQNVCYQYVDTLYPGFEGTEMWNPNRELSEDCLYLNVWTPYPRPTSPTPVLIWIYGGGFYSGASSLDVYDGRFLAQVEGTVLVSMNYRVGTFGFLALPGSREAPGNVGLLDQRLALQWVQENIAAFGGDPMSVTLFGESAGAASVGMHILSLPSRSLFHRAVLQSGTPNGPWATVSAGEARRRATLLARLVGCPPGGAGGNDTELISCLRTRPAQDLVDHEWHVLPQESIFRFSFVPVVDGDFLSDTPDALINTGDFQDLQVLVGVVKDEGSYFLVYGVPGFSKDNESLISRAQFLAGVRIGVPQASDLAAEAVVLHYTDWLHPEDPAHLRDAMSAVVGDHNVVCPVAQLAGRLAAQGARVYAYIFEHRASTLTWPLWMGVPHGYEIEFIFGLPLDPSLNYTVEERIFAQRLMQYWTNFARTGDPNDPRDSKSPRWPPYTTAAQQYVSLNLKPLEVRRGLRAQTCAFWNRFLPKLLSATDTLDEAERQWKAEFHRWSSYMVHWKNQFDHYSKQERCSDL
Description: Compound was tested in vitro for inhibitory activity against Acetylcholinesterase in rat cortex

The target in experiment [2] is T2, Acetylcholinesterase (Homo sapiens, UniProt P22303).
Description: Compound was tested in vitro for inhibitory activity against Acetylcholinesterase
For experiment [3], the target named is Butyrylcholinesterase (Rattus norvegicus, UniProt Q9JKC1).
Description: Compound was tested in vitro for inhibitory activity against Butyrylcholinesterase
The target of experiment [4] is T2, Acetylcholinesterase. Put plainly: In vitro selectivity towards Acetylcholinesterase relative to compound 1.

Sequence of Butyrylcholinesterase (Q9JKC1 whole entry): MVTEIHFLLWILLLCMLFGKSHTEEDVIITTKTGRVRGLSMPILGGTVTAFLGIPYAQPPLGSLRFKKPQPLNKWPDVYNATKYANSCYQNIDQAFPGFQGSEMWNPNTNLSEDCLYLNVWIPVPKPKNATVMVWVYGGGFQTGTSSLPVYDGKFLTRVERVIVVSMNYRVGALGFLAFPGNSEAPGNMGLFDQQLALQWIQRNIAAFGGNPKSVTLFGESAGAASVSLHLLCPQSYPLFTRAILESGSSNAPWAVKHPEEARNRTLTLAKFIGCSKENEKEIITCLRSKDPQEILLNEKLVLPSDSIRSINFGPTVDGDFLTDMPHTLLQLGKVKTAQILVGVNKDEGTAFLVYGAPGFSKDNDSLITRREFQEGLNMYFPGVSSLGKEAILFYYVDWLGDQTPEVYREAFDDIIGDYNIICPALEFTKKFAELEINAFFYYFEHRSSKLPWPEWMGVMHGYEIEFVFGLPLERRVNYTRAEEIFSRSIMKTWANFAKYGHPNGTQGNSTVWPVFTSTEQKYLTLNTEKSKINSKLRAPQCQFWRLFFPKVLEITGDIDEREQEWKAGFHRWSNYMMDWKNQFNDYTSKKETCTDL
T2 sequence (P22303 whole entry): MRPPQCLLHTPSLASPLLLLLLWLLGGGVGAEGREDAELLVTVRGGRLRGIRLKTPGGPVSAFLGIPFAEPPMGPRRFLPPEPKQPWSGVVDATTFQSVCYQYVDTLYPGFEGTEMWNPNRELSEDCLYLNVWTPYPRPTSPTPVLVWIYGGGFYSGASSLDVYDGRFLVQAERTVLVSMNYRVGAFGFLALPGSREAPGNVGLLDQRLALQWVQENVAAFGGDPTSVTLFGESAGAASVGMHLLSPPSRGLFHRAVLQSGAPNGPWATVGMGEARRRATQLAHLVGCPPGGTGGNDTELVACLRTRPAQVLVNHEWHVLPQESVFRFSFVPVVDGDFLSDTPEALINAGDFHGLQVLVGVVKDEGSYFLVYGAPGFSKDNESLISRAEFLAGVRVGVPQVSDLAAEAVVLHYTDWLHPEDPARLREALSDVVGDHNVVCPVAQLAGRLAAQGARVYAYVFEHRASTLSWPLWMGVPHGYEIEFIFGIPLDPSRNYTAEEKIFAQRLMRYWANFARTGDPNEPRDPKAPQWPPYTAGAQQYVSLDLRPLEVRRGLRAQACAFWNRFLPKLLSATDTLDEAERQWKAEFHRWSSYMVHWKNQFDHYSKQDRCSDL

For orientation: IC50 means the concentration at which inhibition is half-maximal. Low values mean greater potency, high ones weaker potency. In the case of `Nc1c2c(nc3ccccc13)-c1ccccc1CS2`, the half-maximal inhibitory concentration (IC50) in experiment [1] is over 100 µM; in experiment [2], 18.6 µM; in experiment [3] it was 4.9 µM. Also, the Relative Selectivity in experiment [4] amounted to 1.22.

On to `Nc1cc(-c2ccccc2)nc2ccccc12`, for which the figures for the 50% inhibitory concentration (IC50) in experiment [1], in experiment [2] and in experiment [3] were over 100 µM, 11.5 µM and 12 µM, respectively. For the same compound, in experiment [4], the Relative Selectivity stood at 4.86.

In the case of `Nc1c2c(nc3ccccc13)-c1ccccc1CC2`, the concentration for half-maximal inhibition (IC50) in experiment [1] stood at 4 µM; in experiment [2] it was 2.98 µM; in experiment [3], 1.18 µM. Besides, the Relative Selectivity in experiment [4] was found to be 1.83.

Take `Nc1c2c(nc3ccccc13)-c1ccccc1C2`: the IC50 in experiment [1] turned out to be 0.48 µM; in experiment [2], 0.676 µM; in experiment [3], 4.67 µM. The Relative Selectivity in experiment [4] stood at 32.1.

Consider `Nc1c2c(nc3ccccc13)-c1ccccc1CO2`, for which the 50% inhibitory concentration (IC50) in experiment [1] is over 100 µM; in experiment [2], 245 µM; in experiment [3], 6.58 µM. This compound came in with a Relative Selectivity in experiment [4] of 0.13.
